Results published in PubChem BioAssay (NCI).
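How tested: cells in 96-well plates exposed to compound for 48 hours at five concentrations. GI50 marks 50% less growth. TGI: total growth inhibition.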

Columns and labels:
Assay in all cases: growth of human tumour cells (NCI), 48 h
786-0 renal = test system: 786-0 renal
A498 renal = test system: A498 renal
A549 NSCLC = test system: A549 NSCLC
ACHN renal = test system: ACHN renal
BT-549 breast = test system: BT-549 breast
CAKI-1 renal = test system: CAKI-1 renal
CCRF-CEM leukemia = test system: CCRF-CEM leukemia
COLO 205 colon = test system: COLO 205 colon
DU-145 prostate = test system: DU-145 prostate
EKVX NSCLC = test system: EKVX NSCLC
HCC-2998 colon = test system: HCC-2998 colon
HCT-116 colon = test system: HCT-116 colon
HCT-15 colon = test system: HCT-15 colon
HL-60(TB) leukemia = test system: HL-60(TB) leukemia
HOP-62 NSCLC = test system: HOP-62 NSCLC
HS 578T breast = test system: HS 578T breast
HT29 colon = test system: HT29 colon
IGROV1 ovarian = test system: IGROV1 ovarian
K-562 leukemia = test system: K-562 leukemia
KM12 colon = test system: KM12 colon
LOX IMVI melanoma = test system: LOX IMVI melanoma
M14 melanoma = test system: M14 melanoma
MALME-3M melanoma = test system: MALME-3M melanoma
MCF7 breast = test system: MCF7 breast
MDA-MB-231 breast = test system: MDA-MB-231 breast
MDA-MB-435 = test system: MDA-MB-435
MOLT-4 leukemia = test system: MOLT-4 leukemia
NCI-H226 lung = test system: NCI-H226 lung
NCI-H23 lung = test system: NCI-H23 lung
NCI-H460 lung = test system: NCI-H460 lung
NCI-H522 lung = test system: NCI-H522 lung
NCI/ADR-RES ovarian = test system: NCI/ADR-RES ovarian
OVCAR-3 ovarian = test system: OVCAR-3 ovarian
OVCAR-4 ovarian = test system: OVCAR-4 ovarian
OVCAR-5 ovarian = test system: OVCAR-5 ovarian
OVCAR-8 ovarian = test system: OVCAR-8 ovarian
PC-3 prostate = test system: PC-3 prostate
RPMI-8226 leukemia = test system: RPMI-8226 leukemia
SF-268 CNS = test system: SF-268 CNS
SF-295 CNS = test system: SF-295 CNS
SF-539 CNS = test system: SF-539 CNS
SK-MEL-2 melanoma = test system: SK-MEL-2 melanoma
SK-MEL-28 melanoma = test system: SK-MEL-28 melanoma
SK-MEL-5 melanoma = test system: SK-MEL-5 melanoma
SK-OV-3 ovarian = test system: SK-OV-3 ovarian
SN12C renal = test system: SN12C renal
SNB-19 CNS = test system: SNB-19 CNS
SNB-75 CNS = test system: SNB-75 CNS
SR leukemia = test system: SR leukemia
SW-620 colon = test system: SW-620 colon
T-47D breast = test system: T-47D breast
TK-10 renal = test system: TK-10 renal
U251 CNS = test system: U251 CNS
UACC-257 melanoma = test system: UACC-257 melanoma
UACC-62 melanoma = test system: UACC-62 melanoma
UO-31 renal = test system: UO-31 renal

**Q.** `C=C(C)C1CCC2(C(=O)O)CCC3(C)C(CCC4C5(C)CCC(OC(=O)NCc6ccccc6)C(C)(C)C5CCC43C)C12` (stereo unspecified) was tested. Which GI50 (786-0 renal) did it give?
**A.** 3.98 µM

**Q.** And the TGI (786-0 renal)?
**A.** > 100 µM

**Q.** What about the GI50 (A498 renal) of the same compound?
**A.** 2.57 µM

**Q.** And the TGI (A498 renal)?
**A.** > 100 µM

**Q.** And the GI50 (A549 NSCLC)?
**A.** 0.961 µM

**Q.** And the TGI (A549 NSCLC)?
**A.** > 100 µM

**Q.** And the GI50 (ACHN renal)?
**A.** 3.29 µM

**Q.** What about the TGI (ACHN renal) of the same compound?
**A.** > 100 µM

**Q.** And the GI50 (BT-549 breast)?
**A.** 4.05 µM

**Q.** What about the TGI (BT-549 breast) of the same compound?
**A.** 33.3 µM

**Q.** What about the GI50 (CAKI-1 renal) of the same compound?
**A.** 1.63 µM

**Q.** And the TGI (CAKI-1 renal)?
**A.** 15.7 µM

**Q.** What about the GI50 (CCRF-CEM leukemia) of the same compound?
**A.** 2.36 µM

**Q.** And the TGI (CCRF-CEM leukemia)?
**A.** > 100 µM

**Q.** What about the GI50 (COLO 205 colon) of the same compound?
**A.** 1.82 µM

**Q.** What about the TGI (COLO 205 colon) of the same compound?
**A.** 5.44 µM

**Q.** What about the GI50 (DU-145 prostate) of the same compound?
**A.** 4.14 µM

**Q.** What about the TGI (DU-145 prostate) of the same compound?
**A.** 35.2 µM

**Q.** What about the GI50 (EKVX NSCLC) of the same compound?
**A.** 1.71 µM

**Q.** What about the TGI (EKVX NSCLC) of the same compound?
**A.** > 100 µM

**Q.** What about the GI50 (HCC-2998 colon) of the same compound?
**A.** 2.8 µM

**Q.** What about the TGI (HCC-2998 colon) of the same compound?
**A.** > 100 µM

**Q.** What about the GI50 (HCT-116 colon) of the same compound?
**A.** 2.24 µM

**Q.** And the TGI (HCT-116 colon)?
**A.** 19.3 µM

**Q.** And the GI50 (HCT-15 colon)?
**A.** 3.74 µM

**Q.** What about the TGI (HCT-15 colon) of the same compound?
**A.** > 100 µM

**Q.** And the GI50 (HL-60(TB) leukemia)?
**A.** 2.39 µM

**Q.** And the TGI (HL-60(TB) leukemia)?
**A.** 28.1 µM

**Q.** And the GI50 (HOP-62 NSCLC)?
**A.** 3.87 µM

**Q.** What about the TGI (HOP-62 NSCLC) of the same compound?
**A.** > 100 µM

**Q.** And the GI50 (HS 578T breast)?
**A.** 3.62 µM

**Q.** What about the TGI (HS 578T breast) of the same compound?
**A.** > 100 µM

**Q.** What about the GI50 (HT29 colon) of the same compound?
**A.** 3.42 µM

**Q.** What about the TGI (HT29 colon) of the same compound?
**A.** 30.4 µM

**Q.** And the TGI (IGROV1 ovarian)?
**A.** > 100 µM

**Q.** What about the GI50 (K-562 leukemia) of the same compound?
**A.** 1.67 µM

**Q.** What about the TGI (K-562 leukemia) of the same compound?
**A.** > 100 µM

**Q.** What about the GI50 (KM12 colon) of the same compound?
**A.** 2.23 µM

**Q.** And the TGI (KM12 colon)?
**A.** 12.2 µM

**Q.** What about the GI50 (LOX IMVI melanoma) of the same compound?
**A.** 4.84 µM

**Q.** What about the TGI (LOX IMVI melanoma) of the same compound?
**A.** > 100 µM

**Q.** And the GI50 (M14 melanoma)?
**A.** 5.98 µM

**Q.** And the TGI (M14 melanoma)?
**A.** > 100 µM

**Q.** What about the GI50 (MALME-3M melanoma) of the same compound?
**A.** 5.5 µM

**Q.** What about the TGI (MALME-3M melanoma) of the same compound?
**A.** 54.1 µM

**Q.** And the GI50 (MCF7 breast)?
**A.** 4.08 µM

**Q.** And the TGI (MCF7 breast)?
**A.** > 100 µM

**Q.** And the GI50 (MDA-MB-231 breast)?
**A.** 5.69 µM

**Q.** And the TGI (MDA-MB-231 breast)?
**A.** 54.3 µM

**Q.** What about the GI50 (MDA-MB-435) of the same compound?
**A.** 5.33 µM

**Q.** And the TGI (MDA-MB-435)?
**A.** > 100 µM

**Q.** What about the GI50 (MOLT-4 leukemia) of the same compound?
**A.** 2.79 µM

**Q.** What about the TGI (MOLT-4 leukemia) of the same compound?
**A.** > 100 µM

**Q.** And the GI50 (NCI-H226 lung)?
**A.** 6.69 µM

**Q.** And the TGI (NCI-H226 lung)?
**A.** > 100 µM

**Q.** And the GI50 (NCI-H23 lung)?
**A.** 2.31 µM

**Q.** What about the TGI (NCI-H23 lung) of the same compound?
**A.** 44 µM

**Q.** And the GI50 (NCI-H460 lung)?
**A.** 3.14 µM

**Q.** And the TGI (NCI-H460 lung)?
**A.** 16.5 µM

**Q.** And the GI50 (NCI-H522 lung)?
**A.** 0.15 µM

**Q.** What about the TGI (NCI-H522 lung) of the same compound?
**A.** 10.4 µM

**Q.** What about the GI50 (NCI/ADR-RES ovarian) of the same compound?
**A.** 3.82 µM

**Q.** What about the TGI (NCI/ADR-RES ovarian) of the same compound?
**A.** > 100 µM

**Q.** What about the GI50 (OVCAR-3 ovarian) of the same compound?
**A.** 2.04 µM

**Q.** And the TGI (OVCAR-3 ovarian)?
**A.** 13.9 µM

**Q.** What about the GI50 (OVCAR-4 ovarian) of the same compound?
**A.** 3.8 µM

**Q.** And the TGI (OVCAR-4 ovarian)?
**A.** > 100 µM

**Q.** What about the GI50 (OVCAR-5 ovarian) of the same compound?
**A.** 84.3 µM

**Q.** And the TGI (OVCAR-5 ovarian)?
**A.** > 100 µM

**Q.** What about the GI50 (OVCAR-8 ovarian) of the same compound?
**A.** 7.29 µM

**Q.** And the TGI (OVCAR-8 ovarian)?
**A.** > 100 µM

**Q.** And the GI50 (PC-3 prostate)?
**A.** 1.2 µM

**Q.** What about the TGI (PC-3 prostate) of the same compound?
**A.** 95.7 µM

**Q.** What about the GI50 (RPMI-8226 leukemia) of the same compound?
**A.** 0.757 µM

**Q.** What about the TGI (RPMI-8226 leukemia) of the same compound?
**A.** 6.49 µM

**Q.** And the GI50 (SF-268 CNS)?
**A.** 4.84 µM

**Q.** And the TGI (SF-268 CNS)?
**A.** > 100 µM

**Q.** And the GI50 (SF-295 CNS)?
**A.** 3.15 µM

**Q.** And the TGI (SF-295 CNS)?
**A.** > 100 µM

**Q.** And the GI50 (SF-539 CNS)?
**A.** 41.9 µM

**Q.** And the TGI (SF-539 CNS)?
**A.** > 100 µM

**Q.** And the GI50 (SK-MEL-2 melanoma)?
**A.** 5.46 µM

**Q.** What about the TGI (SK-MEL-2 melanoma) of the same compound?
**A.** > 100 µM

**Q.** And the GI50 (SK-MEL-28 melanoma)?
**A.** 1.08 µM

**Q.** What about the TGI (SK-MEL-28 melanoma) of the same compound?
**A.** > 100 µM

**Q.** What about the GI50 (SK-MEL-5 melanoma) of the same compound?
**A.** 4.82 µM

**Q.** What about the TGI (SK-MEL-5 melanoma) of the same compound?
**A.** > 100 µM

**Q.** What about the GI50 (SK-OV-3 ovarian) of the same compound?
**A.** 27.8 µM

**Q.** And the TGI (SK-OV-3 ovarian)?
**A.** > 100 µM

**Q.** What about the GI50 (SN12C renal) of the same compound?
**A.** 7.11 µM

**Q.** What about the TGI (SN12C renal) of the same compound?
**A.** > 100 µM

**Q.** And the GI50 (SNB-19 CNS)?
**A.** 25.3 µM

**Q.** And the TGI (SNB-19 CNS)?
**A.** > 100 µM

**Q.** And the GI50 (SNB-75 CNS)?
**A.** 98.4 µM

**Q.** And the TGI (SNB-75 CNS)?
**A.** > 100 µM

**Q.** What about the GI50 (SR leukemia) of the same compound?
**A.** 2.22 µM

**Q.** And the TGI (SR leukemia)?
**A.** > 100 µM

**Q.** What about the GI50 (SW-620 colon) of the same compound?
**A.** 2.56 µM

**Q.** What about the TGI (SW-620 colon) of the same compound?
**A.** > 100 µM

**Q.** And the GI50 (T-47D breast)?
**A.** 3.19 µM

**Q.** What about the TGI (T-47D breast) of the same compound?
**A.** > 100 µM

**Q.** What about the GI50 (TK-10 renal) of the same compound?
**A.** 3.76 µM

**Q.** And the TGI (TK-10 renal)?
**A.** 58.4 µM

**Q.** And the GI50 (U251 CNS)?
**A.** 3.07 µM

**Q.** And the TGI (U251 CNS)?
**A.** > 100 µM

**Q.** And the GI50 (UACC-257 melanoma)?
**A.** 2.3 µM

**Q.** And the TGI (UACC-257 melanoma)?
**A.** > 100 µM

**Q.** What about the GI50 (UACC-62 melanoma) of the same compound?
**A.** 1.9 µM

**Q.** And the TGI (UACC-62 melanoma)?
**A.** > 100 µM

**Q.** And the GI50 (UO-31 renal)?
**A.** 1.86 µM

**Q.** What about the TGI (UO-31 renal) of the same compound?
**A.** 34.5 µM
